Test results reported in publication PMC6661775 (BMC Chemistry, 2019).

Experiments:
[1] = Antioxidant activity by DPPH method; conditions: DPPH radical scavenging, 517 nm; ± SEM
Experimental: This method opted for evaluation of free radical scavenging activity of DPPH was based on modified procedure described by […] et al.. The tested compounds were prepared in methanolic solution and reacted with methanolic solution of DPPH at 37 °C. The reaction mixture was prepared in 96-well plate by adding 50 μL of sample, 50 μl of methanol and 50 μl of DPPH solution prepared in 0.1 mM methanol. The mechanism of action of DPPH assay was based on the fact that DPPH radical get reduced during its reaction with an antioxidant compound and results in changes of color (from deep violet to light yellow). […] The mixture of methanol (5.0 ml) and tested compounds (0.2 ml) serve as blank. Ascorbic acid served as positive control.

[2] = Hydrogen peroxide scavenging (H2O2) assay; conditions: 230 nm, pH 7.4, ± SEM, read-out: IC50 (µM) ± SEM, H2O2 method
Experimental: The solution of H2O2 (100 mM) was prepared via adding up different concentrations of synthesized derivatives ranging from 5 to 80 μg/ml to H2O2 solution (2 ml), prepared in 20 mM phosphate buffer of pH 7.4. Finally, the absorbance of H2O2 was measured at 230 nm after incubating for 10 min next to a blank reading of phosphate buffer without H2O2. For every measurement, a fresh reading of blank was taken to carry out background correction. For control sample containing H2O2 was scanned for absorbance at 230 nm. Results calculated as percentage of hydrogen peroxide inhibition was estimated by the formula [(Ab–At)/[…]] × 100, where Ab is the absorbance of the control and At is the absorbance of compounds/standard taken as L-ascorbic acid (5–80 μg/ml) are shown in Table 5.

[3] = system: T1, xanthine oxidase; test: Enzyme kinetic analysis for XO-inhibitory activity (Michaelis-Menten, Lineweaver-Burk); assay type: biochemical, human
T1 construct: purchased Sigma (Sigma-Aldrich) MAK078
T1 sequence (P47989 whole entry): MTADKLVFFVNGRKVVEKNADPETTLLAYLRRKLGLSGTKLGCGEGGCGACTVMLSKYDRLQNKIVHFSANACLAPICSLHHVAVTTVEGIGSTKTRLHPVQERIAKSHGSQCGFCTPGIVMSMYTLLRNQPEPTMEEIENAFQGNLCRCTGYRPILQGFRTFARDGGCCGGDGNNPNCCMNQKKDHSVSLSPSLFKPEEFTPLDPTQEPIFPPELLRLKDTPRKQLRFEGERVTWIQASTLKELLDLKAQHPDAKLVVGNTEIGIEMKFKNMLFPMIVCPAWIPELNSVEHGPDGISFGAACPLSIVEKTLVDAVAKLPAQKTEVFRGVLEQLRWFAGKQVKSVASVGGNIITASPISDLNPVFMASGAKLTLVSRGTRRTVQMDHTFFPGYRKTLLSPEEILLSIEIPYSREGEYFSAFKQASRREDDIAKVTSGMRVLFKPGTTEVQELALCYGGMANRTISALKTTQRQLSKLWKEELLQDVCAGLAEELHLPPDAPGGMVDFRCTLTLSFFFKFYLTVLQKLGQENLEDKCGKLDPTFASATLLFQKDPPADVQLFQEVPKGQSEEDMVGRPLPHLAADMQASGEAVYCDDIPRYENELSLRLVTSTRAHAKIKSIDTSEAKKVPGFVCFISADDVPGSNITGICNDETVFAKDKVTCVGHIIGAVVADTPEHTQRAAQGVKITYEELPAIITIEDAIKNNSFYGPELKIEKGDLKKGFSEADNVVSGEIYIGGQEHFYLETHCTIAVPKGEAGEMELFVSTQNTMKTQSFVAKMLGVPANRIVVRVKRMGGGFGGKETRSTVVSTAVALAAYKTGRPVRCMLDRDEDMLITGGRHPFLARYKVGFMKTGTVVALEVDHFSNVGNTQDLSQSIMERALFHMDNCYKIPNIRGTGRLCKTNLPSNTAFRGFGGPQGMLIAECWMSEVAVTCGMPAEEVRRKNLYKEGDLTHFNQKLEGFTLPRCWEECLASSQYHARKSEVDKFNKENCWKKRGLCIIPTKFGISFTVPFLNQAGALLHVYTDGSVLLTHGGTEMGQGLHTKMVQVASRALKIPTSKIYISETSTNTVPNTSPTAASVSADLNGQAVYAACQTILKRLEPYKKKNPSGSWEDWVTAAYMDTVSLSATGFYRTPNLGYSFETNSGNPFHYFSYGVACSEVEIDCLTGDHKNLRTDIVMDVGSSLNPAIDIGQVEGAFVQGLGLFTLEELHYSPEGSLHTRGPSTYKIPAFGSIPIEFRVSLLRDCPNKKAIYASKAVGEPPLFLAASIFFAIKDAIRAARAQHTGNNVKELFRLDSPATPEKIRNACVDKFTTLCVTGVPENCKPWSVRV
Experimental: Firstly Michaelis–Menten curve was plotted for the enzyme activity at different concentrations of RU3a3 against different concentration of substrate (xanthine) Fig. 11.
Then double reciprocal plot (Lineweaver–Burk) analysis was done in the presence (0.25, 0.5, and 1.0 µM) and absence of RU3a3 from in vitro data generated during the oxidation of xanthine in presence of xanthine oxidase (Fig. 12). The x- and y axis intercepts of the Lineweaver–Burk plot were utilized to calculate Km and Vmax values of RU3a3 at different concentrations (Table 4).

SMILES	IC50 [1]	IC50 [2]	Vmax of xanthine oxidase ([3]; Conc. of RU3a3 0.25 µM)	Vmax of xanthine oxidase ([3]; Conc. of RU3a3 0.5 µM)	Vmax of xanthine oxidase ([3]; Conc. of RU3a3 1.0 µM)	Manner of xanthine oxidase inhibition ([3]; Lineweaver-Burk plot)
COc1cc(OC)c2c(=O)c(OC(=O)c3ccccc3O)c(-c3ccc(OC)c(OC)c3)oc2c1 [RU7c2]	14.669 ± 0.01 µM	12.1 ± 0.2 µM				
CC1OC(OCC2OC(Oc3c(-c4ccc(O)c(O)c4)oc4cc(O)cc(O)c4c3=Nc3ccc([N+](=O)[O-])cc3Cl)C(O)C(O)C2O)C(O)C(O)C1O (centres unmarked) [RU4b1]	2.65 ± 0.09 µM	9.86 ± 0.25 µM				
CC1OC(OCC2OC(Oc3c(-c4ccc(O)c(O)c4)oc4cc(O)cc(O)c4c3=Nc3ccc([N+](=O)[O-])cc3)C(O)C(O)C2O)C(O)C(O)C1O (centres unmarked) [RU4b2]	8.48 ± 0.25 µM	4.378 ± 0.01 µM				
CC1OC(OCC2OC(Oc3c(-c4ccc(O)c(O)c4)oc4cc(O)cc(O)c4c3=NNC(=S)Nc3ccccc3)C(O)C(O)C2O)C(O)C(O)C1O (centres unmarked) [RU3a2]	8.728 ± 0.02 µM	4.146 ± 0.01 µM				
COc1cc(OC)c2c(=O)c(OC(=O)/C=C/c3ccccc3)c(-c3ccc(OC)c(OC)c3)oc2c1 [RU7c3]	7.69 ± 0.42 µM	17.9 ± 0.41 µM				
CC1OC(OCC2OC(Oc3c(-c4ccc(O)c(O)c4)oc4cc(O)cc(O)c4c3=NNc3ccccc3)C(O)C(O)C2O)C(O)C(O)C1O (centres unmarked) [RU3a3]	11.688 ± 0.01 µM	6.56 ± 0.1 µM	114.4 µmol/min	108.2 µmol/min	98.7 µmol/min	competitive manner
COc1cc(OC)c2c(=O)c(OC(=O)c3cccnc3)c(-c3ccc(OC)c(OC)c3)oc2c1 [RU7c1]	6.06 ± 0.13 µM	14.7 ± 0.6 µM				
CC1OC(OCC2OC(Oc3c(-c4ccc(O)c(O)c4)oc4cc(O)cc(O)c4c3=NNC(N)=S)C(O)C(O)C2O)C(O)C(O)C1O (centres unmarked) [RU3a1]	5.02 ± 0.1 µM	9.13 ± 0.35 µM				
